Nc1ccc(S(=O)(=O)[O-])c(N)c1.[Na+] gave a solubility (mole fraction) (in isopropanol, 273.15 K) of 2.2e-05, a solubility (mole fraction) (in isopropanol, 278.15 K) of 2.78e-05 and a solubility (mole fraction) (in isopropanol, 283.15 K) of 3.51e-05. It also gave a solubility (mole fraction) (in isopropanol, 288.15 K) of 4.43e-05, a solubility (mole fraction) (in isopropanol, 293.15 K) of 5.57e-05 and a solubility (mole fraction) (in isopropanol, 298.15 K) of 6.99e-05. The solubility (mole fraction) (in isopropanol, 303.15 K) was 8.76e-05, the solubility (mole fraction) (in isopropanol, 308.15 K) was 0.000109 and the solubility (mole fraction) (in isopropanol, 313.15 K) was 0.000136. For the same molecule, the solubility (mole fraction) (in isopropanol, 318.15 K) was 0.00017, the solubility (mole fraction) (in isopropanol, 323.15 K) was 0.000211 and the solubility (mole fraction) (in methanol, 273.15 K) was 0.000977. The solubility (mole fraction) (in methanol, 278.15 K) was 0.00109, the solubility (mole fraction) (in methanol, 283.15 K) was 0.00145 and the solubility (mole fraction) (in methanol, 288.15 K) was 0.00173. The solubility (mole fraction) (in methanol, 293.15 K) was 0.00228, the solubility (mole fraction) (in methanol, 298.15 K) was 0.00274 and the solubility (mole fraction) (in methanol, 303.15 K) was 0.00318. For the same molecule, the solubility (mole fraction) (in methanol, 308.15 K) was 0.00395, the solubility (mole fraction) (in methanol, 313.15 K) was 0.00466 and the solubility (mole fraction) (in methanol, 318.15 K) was 0.00558. For the same molecule, the solubility (mole fraction) (in methanol, 323.15 K) was 0.00661, the solubility (mole fraction) (in propylene glycol, 273.15 K) was 0.000831 and the solubility (mole fraction) (in propylene glycol, 278.15 K) was 0.00121. The solubility (mole fraction) (in propylene glycol, 283.15 K) was 0.00145, the solubility (mole fraction) (in propylene glycol, 288.15 K) was 0.00196 and the solubility (mole fraction) (in propylene glycol, 293.15 K) was 0.00235. The solubility (mole fraction) (in propylene glycol, 298.15 K) was 0.0028, the solubility (mole fraction) (in propylene glycol, 303.15 K) was 0.00359 and the solubility (mole fraction) (in propylene glycol, 308.15 K) was 0.00431. For the same molecule, the solubility (mole fraction) (in propylene glycol, 313.15 K) was 0.00577, the solubility (mole fraction) (in propylene glycol, 318.15 K) was 0.00749 and the solubility (mole fraction) (in propylene glycol, 323.15 K) was 0.00963.

From BigSolDB 2.1
